Measurements as given in patent publication US20250127896A1, “CHIMERIC TIM4 RECEPTORS AND USES THEREOF” (CERO THERAPEUTICS HOLDINGS, INC., priority 2021, published 2025).
Entries after “also recorded” stand apart in the source; their conditions may differ.

Experiments:
phosphatidylserine (PS) = test: Single induction plate assay: IFN-γ by CER T cells on plate-bound phosphatidylserine (ELISA); assay type: cell-based; settings: for IFN-γ production in response to phosphatidylserine: plate-bound PS; for IFNγ production by donor in response to increasing doses of plate-bound phosphatidylserine: three donors (31, 32, 38)
Source text: (§1) FIGS. 19A-19C: CER T cells are activated and produce IFN-γ in response to phosphatidylserine engagement in a cell-free in vitro system. FIG. 19A: IFN-γ production in response phosphatidylserine (PS). IFN-γ production was induced in CER-1236 and CER-1234 T cells stimulated with PS (FIG. 19A), but not with phosphatidylethanolamine (PE) (FIG. 19B). […] FIG. 19C: CER1236 T cells are capable of recursive stimulation in vitro. Recursive IFN-γ induction with 3 serial stimulations at the indicated time points following a 24-hour rest after the first stimulation.
as §1, with “FIG. 33A-33C:” for “FIGS. 19A-19C:”, “33A:” for “19A:”, “33A),” for “19A),”, “33B).” for “19B).”, “33C:” for “19C:”
FIG. 44 are graphs showing IFNγ production in CER1234 T cells (left) or CER1236 T cells (right) from three donors in response to titrating doses of plate-bound phosphatidylserine.
FIG. 45 are graphs showing IFNγ production in CER1234 T cells or CER1236 T cells by donor in response to increasing doses of plate-bound phosphatidylserine.
FIG. 46 are graphs showing IFNγ production in CER1234 T cells or CER1236 T cells by donor in response to increasing doses of plate-bound phosphatidylserine at day 14 post-thaw.
FIG. 47 are graphs showing T cell expansion (left), IFNγ production (center), and cell viability (right) in CER1236 T cells in response to increasing doses of plate-bound phosphatidylserine.
FIG. 48 are graphs showing T cell expansion (left), IFNγ production (center), and cell viability (right) in CER1234 T cells in response to increasing doses of plate-bound phosphatidylserine.
(§2) CER T-cell activation was assessed by measuring induction of IFN-gamma by plate- and cell-based assays. Single induction plate assay: varying concentrations of phosphatidylserine (PS) or phosphatidylethanolamine (PE), a control membrane phospholipid not recognized by wild type TIM-4 (wtTIM-4), were coated onto high-binding tissue culture plates. CER T cells were added and IFN-γ levels were measured 24 hours after ligand exposure by ELISA. EC50 concentrations were determined by nonlinear regression (agonist vs. response-variable slope (4 parameters)). Induction by recursive stimulation plate assay: CER T cells were added to phosphatidylserine coated plates (2.5-20 μg/mL PS coating). Five days later, CER T cells were transferred to uncoated plates with fresh T cell optimizer media for 24 hours. Then, CER T cells were transferred again to a fresh PS coated plate. Supernatant was collected to assess IFN-γ induction by ELISA at various timepoints during re-stimulation (24, 72, and 120 hours). Cell-based assay: cytokine induction was assessed by multiparametric ELISA using conditioned supernatants harvested after 120 hours from the cytotoxicity assay described below.
T cells obtained from three different donors were transduced with CER1234 or CER1236 and incubated on titrating doses of plate-bound phosphatidylserine.
24 hour IFNγ stimulation by plate-bound phosphatidylserine aligns with day 5 post-activation expansion for CER1236 T cells. […] 24 hour IFNγ stimulation by plate-bound phosphatidylserine aligns with day 5 post-activation expansion for CER1234 T cells.

[1] = test system: phosphatidylethanolamine (PE); test: Single induction plate assay: IFN-γ by CER T cells on plate-bound phosphatidylethanolamine (control); assay type: cell-based
Source text: as §1
FIG. 33A-33C: CER T cells are activated and produce IFN-γ in response to phosphatidylserine engagement in a cell-free in vitro system. FIG. 33A: IFN-γ production in response phosphatidylserine (PS). IFN-γ production was induced in CER-1236 and CER-1234 T cells stimulated with PS (FIG. 33A), but not with phosphatidylethanolamine (PE) (FIG. 33B). […]
CER T-cell activation was assessed by measuring induction of IFN-gamma by plate- and cell-based assays. […] CER T cells were added and IFN-γ levels were measured 24 hours after ligand exposure by ELISA. EC50 concentrations were determined by nonlinear regression (agonist vs. response-variable slope (4 parameters)). […] Cell-based assay: cytokine induction was assessed by multiparametric ELISA using conditioned supernatants harvested after 120 hours from the cytotoxicity assay described below.

Jeko1 TMEM30A−/− cells = test: CER T cell cytotoxicity against Jeko1 TMEM30A−/− cells (Incucyte); assay type: cell-based; settings: for cytotoxic function against Jeko1 TMEM30A−/− cells: co-culture assays
Procedure: FIG. 22: CER1234 or CER1236 T cells display cytotoxic function against Jeko1 TMEM30A^−/− MCL cells as measured by incucyte assay.
Statistical analysis was performed using 2-way ANOVA.

[2] = test system: A2780 ovarian cancer cells; test: Cytokine production by CER T cells co-cultured with PARP inhibitor-treated A2780 cells; assay type: cell-based, human; settings: for TNF-α, IFN-γ, granzyme B induction: PARP inhibitor-treated A2780, E:T 1:1
Procedure: FIGS. 35A-35C: Cytokine production by CER T cells in response to co-culture with PARP inhibitor-treated A2780 ovarian cancer cells. Samples from left to right: no drug, niraparib treated, and olaparib treated. FIG. 35A-IFN-γ. FIG. 35B-TNF-α. FIG. 35C-granzyme B.
as §2

[3] = test system: A2780 ovarian cancer cells; test: T cell phenotype (CCR7, CD4/CD8) and proliferation in A2780 / PARP inhibitor co-culture; assay type: cell-based, human; settings: for CCR7 expression (% CCR7+ cells in Tim4+ T cells): 120 hours co-culture with olaparib-treated A2780 cells; for CER T cell proliferation: co-cultures treated with PARPi vs wtTIM-4 T cells or no drug, E:T 1:1
Source text: FIGS. 27A-27B show a (FIG. 27A) schematic of chimeric Tim4 receptors, CER-1234 and CER1236 of the present disclosure; and (FIG. 27B) a schematic of assay set up for assessing immune phenotype of the chimeric Tim4 receptors in co-culture with PARP inhibitor treated ovarian cancer cells. CER-1234 and CER1236 have an extracellular Tim4 binding domain, CD28 transmembrane domain, CD28 signaling domain, TLR2 signaling domain, and CD3ζ signaling domain, and showing the orientation of the signaling domains in the chimeric Tim4 receptor constructs. A control molecule, CER-1183, having a Tim4 extracellular binding domain, a Tim4 transmembrane domain, and Tim4 signaling domain is also depicted.
Samples on bar graph from left to right: A2780+ T cell, A2780+ T cell +niraparib, and A2780+ T cell +olaparib. […] For FIGS. 29A-29C, co-culture conditions A2780+ T cell; A2780+ T cell +niraparib; A27080+ T cell +olaparib are shown from left to right in the bar graph for each donor T cell sample.
FIGS. 30A-30C show CD4/CD8 T cell ratio at 120 hours of co-culture of chimeric Tim4 receptor transduced T cells, olaparib or niraparib, and target A2780 ovarian cancer cells. Samples on bar graph from left to right: A2780+ T cell, A2780+T cell +niraparib, and A2780+ T cell +olaparib. […] For FIGS. 4A-4C, co-culture conditions A2780+ T cell; A2780+ T cell +niraparib; A27080+T cell +olaparib are shown from left to right in the bar graph for each donor T cell sample.
Expression of TIM-4, CD45RA, and CCR7 as well as CD4/CD8 ratios were evaluated by flow cytometry using commercially available fluorochrome-conjugated antibodies. Proliferation was measured by flow cytometry using precision count beads to determine the absolute counts of viable T cells at the end of the co-culture. T-cell proliferation is reported as the fold expansion of T cell counts at 120 hours relative to 0 hours.

[4] = Donor 38, 24 hours after ligand exposure
[5] = Donor 41, 24 hours after ligand exposure
[6] = either drug combined, 96 hours, compared to CER-1234 with no drug

Row | Substance | PS EC50 (IFN-γ production) (phosphatidylserine (PS); [4]) [µg/mL] | PS EC50 (IFN-γ production) (phosphatidylserine (PS); [5]) [µg/mL] | IFN-γ production in response to phosphatidylserine (phosphatidylserine (PS)) | IFNγ production by donor in response to increasing doses of plate-bound phosphatidylserine (phosphatidylserine (PS)) | IFN-γ production in response to phosphatidylethanolamine [1] | targets eliminated (Jeko1 TMEM30A−/− cells; JeKo-1 PS+ cells, 96 hrs, low effector:target ratios) [%] | cytotoxic function against Jeko1 TMEM30A−/− cells (Jeko1 TMEM30A−/− cells) | TNF-α, IFN-γ, granzyme B induction [2] | Interferon-γ increase [2, 6] [fold] | granzyme B increase [2, 6] | CCR7 expression (% CCR7+ cells in Tim4+ T cells) [3] | CER T cell proliferation [3] | IFNγ production by donor on plate-bound phosphatidylserine at day 14 post-thaw (phosphatidylserine (PS); day 14 post-thaw) | CD4/CD8 ratio ([3]; 120 hours co-culture with PARPi-treated A2780, donor 38 and donor 41)
1 | CER-1234: chimeric Tim4 receptor: Tim4 binding domain-CD28tm-CD28-TLR2 TIR-CD3z, SEQ ID NO:18; tested as transduced T cells | 3.52 | 1.88 | specifically produce IFN-γ in a dose-dependent manner; also recorded: produced concentration-dependent IFN-γ responses | shows lower activation for donors 32 and 38 | but not to phosphatidylethanolamine (PE) | 90 | efficiently eliminate Jeko1 TMEM30A^−/− cells | induced | 7 | 5-7 fold | Higher CCR7 expression | proliferated in co-cultures treated with PARPi |  | 
2 | CER-1236: chimeric Tim4 receptor: Tim4 binding domain-CD28tm-CD28-CD3z-TLR2 TIR, SEQ ID NO:19; tested as transduced T cells | 4.74 | 3.16 | specifically produce IFN-γ in a dose-dependent manner; also recorded: produced concentration-dependent IFN-γ responses | shows strong activation | but not to phosphatidylethanolamine (PE) |  | efficiently eliminate Jeko1 TMEM30A^−/− cells | induced |  |  | Higher CCR7 expression | proliferated in co-cultures treated with PARPi | produces more IFNγ across all donors compared to CER1234 T cells | higher CD4/CD8 ratios
